{"source": "patent US20050049200A1", "about": "“LHRH-antagonists in the treatment of fertility disorders” (priority 1996, published 2005)", "key": {"[1]": {"test_system": "patients undergoing COS/ART", "test": "Phase II clinical trial of Cetrorelix in controlled ovarian stimulation (COS/ART)", "assay_type": "in vivo", "protocol": "The results of a phase II clinical trial are shown in Table I. A total of […] patients were treated. […] During multiple dosing, the mean days of Cetrorelix application is 6 days. 25 babies were born by the end of May 1996 (7 following multiple doses; 18 following single/dual doses). 238 patients were treated with Cetrorelix by subcutaneous injection of Cetrorelix […]-Lyophilisat. 134 patients were treated with multiple doses and 104 patients with single or dual doses. The multiple doses are 0.25 mg/day or higher. The single dose was 3 mg or higher. […]"}, "[2]": {"test_system": "patients undergoing COH for IVF/ICSI", "test": "Cetrorelix combined with clomifen citrate and gonadotrophins for hormonal stimulation (COH) for IVF/ICSI", "assay_type": "in vivo", "conditions": "for fertilization rate: ICSI", "protocol": "Combination of the GnRH antagonist Cetrorelix, clomifen citrate(CC) and gonadotrophins for hormonal stimulation for IVF/ICSI. COH was started on day 2 after spontaneous menstrual bleeding using 100 mg CC per day for 5 or 7 days. The antagonist Cetrorelix (0.25 mg s.c.) was given starting on stimulation day 6 combined with either urinary hMG or recombinant FSH (3 ampoules/d) in a prospective randomized way. After two days of gonadotrophin injection, the dose was individualized. Human chorionic gonadotropin was given for ovulation induction, if at least 3 follicles were ≧17 mm in diameter. In total, 30 patients were included in the study. 15 were randomized in each group. Intra cytoplasmatic sperm injection (ICSI) was applied in each case."}, "[3]": {"test_system": "pituitary / follicular growth", "test": "Animal experiments and clinical studies with Cetrorelix (unstimulated follicular growth, pituitary responsiveness)", "assay_type": "in vivo", "from_the_text": "These low dosage levels present new possibilities for manipulating the time of ovulation during a normal, not exogenous gonadotropin-stimulated cycle, without affecting the viability of the growing follicle. In case of inadequate follicular growth related to treatment with LHRH-antagonists, low dose and short term administration of gonadotrophin or other trophic compounds will compensate for these effects. Subsequently, by stopping the LHRH-antagonist treatment, it is possible to let the normal ovulation occur or to induce ovulation by exogenous manipulation, if necessary. Ovulation induction was induced by the administration of standard HCG or by administration of LHRH and/or LHRH agonistic analogs. These described treatment alternatives are a departure from existing protocols, since they are possible only if preceded by treatment for LH-surge-control with an LHRH-antagonist. In animal and clinical studies with Cetrorelix it was shown that the responsiveness of the pituitary to LHRH or agonistic analogs is preserved under these conditions of treatment. Without this treatment, the pituitary cannot respond after agonistic pretreatment for LH-surge control due to receptor down-regulation. In addition, the possible use of ovulation inducing agents other than HCG results in a-reduced incidence of ovarian hyperstimulation syndrome."}, "[4]": {"test_system": "premature LH surges", "conditions": "short term treatment; cited from earlier work"}, "[5]": {"conditions": "all phase II patients, both regimens"}, "[6]": {"conditions": "multiple dosing, 3-7/14 days, phase II dose finding"}, "[7]": {"conditions": "single dose (1 day), phase II dose finding"}}, "note": "“Also recorded” adds a separate entry of the source. Where a SMILES comes first, the peptide text is derived from it. [ ]: non-standard residue; d: D form. dPhe(4-Cl) = N[C@H](Cc1ccc(Cl)cc1)C(=O)O; d2Nal = N[C@H](Cc1ccc2ccccc2c1)C(=O)O; dCit = NC(=O)NCCC[C@@H](N)C(=O)O; d3Pal = N[C@H](Cc1cccnc1)C(=O)O", "data": [{"compound": "CC(=O)N[C@H](Cc1ccc2ccccc2c1)C(=O)N[C@H](Cc1ccc(Cl)cc1)C(=O)N[C@H](Cc1cccnc1)C(=O)N[C@@H](CO)C(=O)N[C@@H](Cc1ccc(O)cc1)C(=O)N[C@H](CCCNC(N)=O)C(=O)N[C@@H](CC(C)C)C(=O)N[C@@H](CCCNC(=N)N)C(=O)N1CCC[C@H]1C(=O)N[C@H](C)C(N)=O", "note": "[Cetrorelix] (Ac-[d2Nal][dPhe(4-Cl)][d3Pal]SY[dCit]LRP[dA]-NH2)", "values": [{"measurement": "FSH secretion", "setting": "[1]; FIG. 1", "result": "maintained at a natural level"}, {"measurement": "individual estrogen development", "setting": "[1]; FIG. 1", "result": "not affected"}, {"measurement": "pregnancies obtained", "setting": "[1]; [5]", "result": 71}, {"measurement": "pregnancy rate", "setting": "[1]; [5]", "result": 30, "unit": "%"}, {"measurement": "babies born by the end of May 1996", "setting": "[1]; both regimens together", "result": 25}, {"measurement": "babies born by the end of May 1996", "setting": "[1]; following multiple doses", "result": 7}, {"measurement": "babies born by the end of May 1996", "setting": "[1]; following single/dual doses", "result": 18}, {"measurement": "pregnancy rate", "setting": "[1]; multiple dose regimen", "result": 28.4, "unit": "%"}, {"measurement": "pregnancies", "setting": "[1]; multiple dose regimen, of 134 patients", "result": 38}, {"measurement": "premature LH surge", "setting": "[1]; multiple doses of 0.25 mg or higher or single dose of 3 mg or higher, s.c.", "result": "No premature LH surge; also recorded: absolute prevention of any premature LH surge"}, {"measurement": "min. effective dose (Dose/Day)", "setting": "[1]; [6]", "result": "0.25 min. effect, dose mg"}, {"measurement": "no effect dose (Dose/Day)", "setting": "[1]; [6]", "result": 0.10, "unit": "no effect. dose mg"}, {"measurement": "min. effective dose", "setting": "[1]; [7]", "result": 3, "unit": "min. effective dose mg"}, {"measurement": "no effect dose", "setting": "[1]; [7]", "result": 2, "unit": "no effect. Dose mg"}, {"measurement": "duration of effect to prevent a premature LH surge", "setting": "[1]; single dose regimen", "result": "up to 6.5 days"}, {"measurement": "pregnancy rate", "setting": "[1]; single/dual dosage regimen", "result": 31.7, "unit": "%"}, {"measurement": "pregnancies", "setting": "[1]; single/dual dosage regimen, of 104 patients", "result": 33}, {"measurement": "ovarian hyperstimulation syndrome (OHSS)", "setting": "[2]; both groups, 30 patients", "result": "No case"}, {"measurement": "oocytes retrieved per cycle", "setting": "[2]; hMG group", "result": "7.7±3.8"}, {"measurement": "fertilization rate", "setting": "[2]; hMG group", "result": 42, "unit": "%"}, {"measurement": "oocytes retrieved per cycle", "setting": "[2]; recombinant FSH group", "result": "6.4±2.6"}, {"measurement": "fertilization rate", "setting": "[2]; recombinant FSH group", "result": 53, "unit": "%"}, {"measurement": "effect on normal, unstimulated follicular growth", "setting": "[3]; multiple or single injections, extremely low dosage levels", "result": "arrest of the normal, unstimulated follicular growth"}, {"measurement": "responsiveness of the pituitary to LHRH or agonistic analogs", "setting": "[3]; under treatment for LH-surge control", "result": "preserved"}, {"measurement": "premature LH surges during stimulated cycles", "setting": "[4]", "result": "complete avoidance of premature LH surges"}]}]}
